Laboratory results reported in ChEMBL document CHEMBL3044631, “Synthesis of 2-[4,5-dimethyl-1-(phenylamino)-1H-imidazol-2-ylthio]-N-(thiazole-2-yl)acetamide derivatives and their anticancer activities” (2013).

Assays:
Format in all cases: functional
HOP-92 = assay: Anticancer activity against Homo sapiens (human) HOP92 cells after 48 hr by SRB assay; settings: HOP-92, 48 h; for CC50: read-out: LC50 (the source's name)
CCRF-CEM = assay: Anticancer activity against Homo sapiens (human) CCRF-CEM cells after 48 hr by SRB assay
SK-MEL-28 = assay: Anticancer activity against Homo sapiens (human) SK-MEL-28 cells after 48 hr by SRB assay; settings: SK-MEL-28, 48 h
NCI-H226 = assay: Anticancer activity against Homo sapiens (human) NCI-H226 cells after 48 hr by SRB assay; settings: NCI-H226, 48 h
M14 = assay: Anticancer activity against Homo sapiens (human) M14 cells after 48 hr by SRB assay; settings: M14, 48 h
RXF 393 = assay: Anticancer activity against Homo sapiens (human) RXF393 cells after 48 hr by SRB assay; settings: RXF 393, 48 h
NCI-H460 = assay: Anticancer activity against Homo sapiens (human) NCI-H460 cells after 48 hr by SRB assay; settings: NCI-H460, 48 h
RPMI-8226 = assay: Anticancer activity against Homo sapiens (human) RPMI8226 cells after 48 hr by SRB assay; settings: RPMI-8226, 48 h; for CC50: read-out: LC50 (the source's name)
HCC 2998 = assay: Anticancer activity against Homo sapiens (human) HCC2998 cells after 48 hr by SRB assay; settings: HCC 2998, 48 h
PC-3 = assay: Anticancer activity against Homo sapiens (human) PC3 cells after 48 hr by SRB assay; settings: PC-3, 48 h
MCF7 = assay: Anticancer activity against Homo sapiens (human) MCF7 cells after 48 hr by SRB assay; settings: MCF7, 48 h; for CC50: read-out: LC50 (the source's name)
Hs-578T = assay: Anticancer activity against Homo sapiens (human) Hs 578T cells after 48 hr by SRB assay; settings: for CC50: read-out: LC50 (the source's name)
SR = assay: Anticancer activity against Homo sapiens (human) SR cells after 48 hr by SRB assay; settings: for CC50: read-out: LC50 (the source's name)

`COc1ccc(Nn2c(SCC(=O)Nc3nc(-c4ccc(Cl)cc4)cs3)nc(C)c2C)cc1` showed a GI50 (HOP-92) of 2.42 µM, a TGI (HOP-92) of 7.8 µM and a CC50 (HOP-92) of over 100 µM. It also gave a GI50 (CCRF-CEM) of 3.82 µM, an LC50 (concentration killing 50% of cells) (CCRF-CEM) of over 100 µM and a TGI (CCRF-CEM) of over 100 µM. For the same compound, the GI50 (SK-MEL-28) was 18 µM, the LC50 (SK-MEL-28) was over 100 µM and the TGI (SK-MEL-28) was over 100 µM. For the same compound, the GI50 (NCI-H226) was 3.26 µM, the LC50 (NCI-H226) was over 100 µM and the TGI (NCI-H226) was over 100 µM. It also gave a GI50 (M14) of 3.02 µM, an LC50 (M14) of over 100 µM and a TGI (M14) of over 100 µM. It also gave a GI50 (RXF 393) of 3.53 µM, an LC50 (50% lethal concentration) (RXF 393) of over 100 µM and a TGI (RXF 393) of 9.64 µM. The GI50 (NCI-H460) was 2.69 µM, the LC50 (NCI-H460) was over 100 µM and the TGI (NCI-H460) was 10.6 µM. The GI50 (RPMI-8226) was 5.8 µM, the TGI (RPMI-8226) was over 100 µM and the CC50 (RPMI-8226) was over 100 µM. It also gave a GI50 (HCC 2998) of 3.07 µM, an LC50 (HCC 2998) of over 100 µM and a TGI (HCC 2998) of 9.91 µM. The GI50 (PC-3) was 2.65 µM, the LC50 (concentration killing 50% of cells) (PC-3) was over 100 µM and the TGI (PC-3) was over 100 µM. It also gave a GI50 (MCF7) of 3.36 µM, a TGI (MCF7) of 25.5 µM and a CC50 (MCF7) of over 100 µM. It also gave a GI50 (Hs-578T) of 11.8 µM, a TGI (Hs-578T) of over 100 µM and a CC50 (Hs-578T) of over 100 µM. It also gave a GI50 (SR) of 7.02 µM, a TGI (SR) of over 100 µM and a CC50 (SR) of over 100 µM.

Work on `Cc1ccc(Nn2c(SCC(=O)Nc3nc(-c4ccccc4)cs3)nc(C)c2C)cc1` yielded a GI50 (M14) of 3.7 µM, an LC50 (M14) of over 100 µM and a TGI (M14) of 48.6 µM. It also gave a GI50 (NCI-H460) of 3.88 µM, an LC50 (NCI-H460) of 83.3 µM and a TGI (NCI-H460) of 16.5 µM. The GI50 (Hs-578T) was 3.41 µM, the TGI (Hs-578T) was over 100 µM and the CC50 (Hs-578T) was over 100 µM.

Work on `Cc1nc(SCC(=O)Nc2nc(-c3ccc(Cl)cc3)cs2)n(Nc2ccccc2)c1C` yielded a GI50 (HOP-92) of 1.61 µM, a TGI (HOP-92) of 6.89 µM and a CC50 (HOP-92) of 38.9 µM. It also gave a GI50 (CCRF-CEM) of 5.49 µM, an LC50 (concentration killing 50% of cells) (CCRF-CEM) of over 100 µM and a TGI (CCRF-CEM) of over 100 µM. The GI50 (SK-MEL-28) was 10.1 µM, the LC50 (SK-MEL-28) was 59.7 µM and the TGI (SK-MEL-28) was 24.6 µM. For the same compound, the GI50 (NCI-H226) was 3.37 µM, the LC50 (NCI-H226) was 93.9 µM and the TGI (NCI-H226) was 18.8 µM. It also gave a GI50 (M14) of 3.69 µM, an LC50 (M14) of 51.2 µM and a TGI (M14) of 16 µM. The GI50 (RXF 393) was 2.97 µM, the LC50 (50% lethal concentration) (RXF 393) was 26.8 µM and the TGI (RXF 393) was 7.33 µM. For the same compound, the GI50 (NCI-H460) was 2.89 µM, the LC50 (NCI-H460) was 82.1 µM and the TGI (NCI-H460) was 11 µM. The GI50 (RPMI-8226) was 3.55 µM, the TGI (RPMI-8226) was over 100 µM and the CC50 (RPMI-8226) was over 100 µM. The GI50 (HCC 2998) was 10.6 µM, the LC50 (HCC 2998) was 82.6 µM and the TGI (HCC 2998) was 29.5 µM. The GI50 (PC-3) was 2.34 µM, the LC50 (concentration killing 50% of cells) (PC-3) was 38.4 µM and the TGI (PC-3) was 11 µM. For the same compound, the GI50 (MCF7) was 2.94 µM, the TGI (MCF7) was 11.4 µM and the CC50 (MCF7) was 52.2 µM. It also gave a GI50 (Hs-578T) of 3.42 µM, a TGI (Hs-578T) of 21.6 µM and a CC50 (Hs-578T) of over 100 µM. For the same compound, the GI50 (SR) was 3.81 µM, the TGI (SR) was over 100 µM and the CC50 (SR) was over 100 µM.
